Reference: the supplement of paper PMC10307832

How the values were obtained:
Assay in all cases: relative viability (nuclei count vs DMSO), 5 days (fraction); higher = more cells survive
NCI-H322M = test system: NCI-H322M
Procedure, shortened: (§1)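 Dosing by pin tool came one day after lung cancer cell lines were seeded in 1536-well plates, using either one drug or a fixed anchor-drug dose plus five library-drug doses (not always all listed) in √10 steps. After 5 days, nuclei were counted on 4× images. Relative viability is treated-well nuclei count divided by vehicle-well nuclei count, and values are medians of duplicate plates.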

201T = test system: 201T
Procedure, shortened: as §1

NCI-H2126 = test system: NCI-H2126
Procedure, shortened: as §1

COR-L 105 = test system: COR-L 105
Procedure, shortened: as §1

NCI-H650 = test system: NCI-H650
Procedure, shortened: as §1

NCI-H2405 = test system: NCI-H2405
Procedure, shortened: as §1

NCI-H2347 = test system: NCI-H2347
Procedure, shortened: as §1

NCI-H2087 = test system: NCI-H2087
Procedure, shortened: as §1

NCI-H520 = test system: NCI-H520
Procedure, shortened: as §1

ChaGo-K-1 = test system: ChaGo-K-1
Procedure, shortened: as §1

HCC-78 = test system: HCC-78
Procedure, shortened: as §1

NCI-H522 = test system: NCI-H522
Procedure, shortened: as §1

EPLC-272H = test system: EPLC-272H
Procedure, shortened: as §1

LCLC-97TM1 = test system: LCLC-97TM1
Procedure, shortened: as §1

RERF-LC-KJ = test system: RERF-LC-KJ
Procedure, shortened: as §1

NCI-H1915 = test system: NCI-H1915
Procedure, shortened: as §1

NCI-H661 = test system: NCI-H661
Procedure, shortened: as §1

PC-14 = test system: PC-14
Procedure, shortened: as §1

NCI-H1666 = test system: NCI-H1666
Procedure, shortened: as §1

HCC-827 = test system: HCC-827
Procedure, shortened: as §1

NCI-H647 = test system: NCI-H647
Procedure, shortened: as §1

H3255 = test system: H3255
Procedure, shortened: as §1

LC-2-ad = test system: LC-2-ad
Procedure, shortened: as §1

NCI-H23 = test system: NCI-H23
Procedure, shortened: as §1

COc1cc(N2CCC(C(N)=O)CC2)ccc1Nc1nc(N)c(Cl)c(Nc2ccccc2S(=O)(=O)C(C)C)n1 [HG-5-88-01] + N=C(N)NC(=N)NCCc1ccccc1 [Phenformin] (partner 250 µM)
relative viability (NCI-H322M; first compound 0.04 µM): 0.793 | relative viability (NCI-H322M; first compound 0.1265 µM): 0.669 | relative viability (NCI-H322M; first compound 0.4 µM): 0.689 | relative viability (NCI-H322M; first compound 4 µM): 0.704 | relative viability (201T; first compound 0.04 µM): 0.54 | relative viability (201T; first compound 0.1265 µM): 0.452 | relative viability (201T; first compound 0.4 µM): 0.479 | relative viability (201T; first compound 1.265 µM): 0.547 | relative viability (201T; first compound 4 µM): 0.397 | relative viability (NCI-H2126; first compound 0.04 µM): 0.552 | relative viability (NCI-H2126; first compound 0.1265 µM): 0.58 | relative viability (NCI-H2126; first compound 0.4 µM): 0.525 | relative viability (NCI-H2126; first compound 1.265 µM): 0.461 | relative viability (NCI-H2126; first compound 4 µM): 0.384 | relative viability (COR-L 105; first compound 0.04 µM): 0.61 | relative viability (COR-L 105; first compound 0.1265 µM): 0.511 | relative viability (COR-L 105; first compound 0.4 µM): 0.47 | relative viability (COR-L 105; first compound 1.265 µM): 0.324 | relative viability (COR-L 105; first compound 4 µM): 0.296 | relative viability (NCI-H650; first compound 0.04 µM): 0.429 | relative viability (NCI-H650; first compound 0.1265 µM): 0.492 | relative viability (NCI-H650; first compound 0.4 µM): 0.417 | relative viability (NCI-H650; first compound 1.265 µM): 0.424 | relative viability (NCI-H650; first compound 4 µM): 0.335 | relative viability (NCI-H2405; first compound 0.04 µM): 0.46 | relative viability (NCI-H2405; first compound 0.1265 µM): 0.484 | relative viability (NCI-H2405; first compound 0.4 µM): 0.469 | relative viability (NCI-H2405; first compound 1.265 µM): 0.38 | relative viability (NCI-H2405; first compound 4 µM): 0.432 | relative viability (NCI-H2347; first compound 0.04 µM): 0.295 | relative viability (NCI-H2347; first compound 0.1265 µM): 0.626 | relative viability (NCI-H2347; first compound 0.4 µM): 0.448 | relative viability (NCI-H2347; first compound 1.265 µM): 0.41 | relative viability (NCI-H2347; first compound 4 µM): 0.487 | relative viability (NCI-H2087; first compound 0.04 µM): 0.523 | relative viability (NCI-H2087; first compound 0.1265 µM): 0.49 | relative viability (NCI-H2087; first compound 0.4 µM): 0.469 | relative viability (NCI-H2087; first compound 1.265 µM): 0.342 | relative viability (NCI-H2087; first compound 4 µM): 0.319 | relative viability (NCI-H520; first compound 0.04 µM): 0.441 | relative viability (NCI-H520; first compound 0.1265 µM): 0.67 | relative viability (NCI-H520; first compound 0.4 µM): 0.57 | relative viability (NCI-H520; first compound 1.265 µM): 0.431 | relative viability (NCI-H520; first compound 4 µM): 0.492 | relative viability (ChaGo-K-1; first compound 0.04 µM): 0.586 | relative viability (ChaGo-K-1; first compound 0.1265 µM): 0.51 | relative viability (ChaGo-K-1; first compound 0.4 µM): 0.449 | relative viability (ChaGo-K-1; first compound 1.265 µM): 0.525 | relative viability (ChaGo-K-1; first compound 4 µM): 0.383 | relative viability (HCC-78; first compound 0.04 µM): 0.602 | relative viability (HCC-78; first compound 0.1265 µM): 0.584 | relative viability (HCC-78; first compound 0.4 µM): 0.447 | relative viability (HCC-78; first compound 1.265 µM): 0.306 | relative viability (HCC-78; first compound 4 µM): 0.324 | relative viability (NCI-H522; first compound 0.04 µM): 0.711 | relative viability (NCI-H522; first compound 0.1265 µM): 0.657 | relative viability (NCI-H522; first compound 0.4 µM): 0.697 | relative viability (NCI-H522; first compound 1.265 µM): 0.558 | relative viability (NCI-H522; first compound 4 µM): 0.502 | relative viability (EPLC-272H; first compound 0.04 µM): 0.352 | relative viability (EPLC-272H; first compound 0.1265 µM): 0.34 | relative viability (EPLC-272H; first compound 0.4 µM): 0.274 | relative viability (EPLC-272H; first compound 1.265 µM): 0.253 | relative viability (EPLC-272H; first compound 4 µM): 0.0477 | relative viability (LCLC-97TM1; first compound 0.04 µM): 0.483 | relative viability (LCLC-97TM1; first compound 0.1265 µM): 0.42 | relative viability (LCLC-97TM1; first compound 0.4 µM): 0.394 | relative viability (LCLC-97TM1; first compound 1.265 µM): 0.357 | relative viability (LCLC-97TM1; first compound 4 µM): 0.204 | relative viability (RERF-LC-KJ; first compound 0.04 µM): 0.421 | relative viability (RERF-LC-KJ; first compound 0.1265 µM): 0.4 | relative viability (RERF-LC-KJ; first compound 0.4 µM): 0.407 | relative viability (RERF-LC-KJ; first compound 1.265 µM): 0.371 | relative viability (RERF-LC-KJ; first compound 4 µM): 0.241 | relative viability (NCI-H1915; first compound 0.04 µM): 0.38 | relative viability (NCI-H1915; first compound 0.1265 µM): 0.354 | relative viability (NCI-H1915; first compound 0.4 µM): 0.381 | relative viability (NCI-H1915; first compound 1.265 µM): 0.416 | relative viability (NCI-H1915; first compound 4 µM): 0.328 | relative viability (NCI-H661; first compound 0.04 µM): 0.301 | relative viability (NCI-H661; first compound 0.1265 µM): 0.277 | relative viability (NCI-H661; first compound 0.4 µM): 0.259 | relative viability (NCI-H661; first compound 1.265 µM): 0.24 | relative viability (NCI-H661; first compound 4 µM): 0.248 | relative viability (PC-14; first compound 0.04 µM): 0.65 | relative viability (PC-14; first compound 0.1265 µM): 0.522 | relative viability (PC-14; first compound 0.4 µM): 0.484 | relative viability (PC-14; first compound 1.265 µM): 0.212 | relative viability (PC-14; first compound 4 µM): 0.103 | relative viability (NCI-H1666; first compound 0.04 µM): 0.581 | relative viability (NCI-H1666; first compound 0.1265 µM): 0.57 | relative viability (NCI-H1666; first compound 0.4 µM): 0.544 | relative viability (NCI-H1666; first compound 1.265 µM): 0.558 | relative viability (NCI-H1666; first compound 4 µM): 0.459 | relative viability (HCC-827; first compound 0.04 µM): 0.432 | relative viability (HCC-827; first compound 0.1265 µM): 0.413 | relative viability (HCC-827; first compound 0.4 µM): 0.384 | relative viability (HCC-827; first compound 1.265 µM): 0.29 | relative viability (HCC-827; first compound 4 µM): 0.249 | relative viability (NCI-H647; first compound 0.04 µM): 0.663 | relative viability (NCI-H647; first compound 0.1265 µM): 0.595 | relative viability (NCI-H647; first compound 0.4 µM): 0.624 | relative viability (NCI-H647; first compound 1.265 µM): 0.608 | relative viability (NCI-H647; first compound 4 µM): 0.643 | relative viability (H3255; first compound 0.04 µM): 0.381 | relative viability (H3255; first compound 0.1265 µM): 0.325 | relative viability (H3255; first compound 0.4 µM): 0.332 | relative viability (H3255; first compound 4 µM): 0.32 | relative viability (LC-2-ad; first compound 0.04 µM): 0.717 | relative viability (LC-2-ad; first compound 0.1265 µM): 0.69 | relative viability (LC-2-ad; first compound 0.4 µM): 0.598 | relative viability (LC-2-ad; first compound 1.265 µM): 0.472 | relative viability (LC-2-ad; first compound 4 µM): 0.415 | relative viability (NCI-H23; first compound 0.04 µM): 0.767 | relative viability (NCI-H23; first compound 0.1265 µM): 0.833 | relative viability (NCI-H23; first compound 0.4 µM): 0.786 | relative viability (NCI-H23; first compound 1.265 µM): 0.868 | relative viability (NCI-H23; first compound 4 µM): 0.441
